Assay results as given in patent US9695156B2, “Compounds for the treatment and prevention of infections” (Brown University, priority 2012, dated 2017).

Tests used:
JCPyV [1] = experiment: Dose dependent inhibition of infection, flow cytometric scoring, SVG-A cells; assay type: cell-based, JC polyomavirus; conditions: for inhibition of JCPyV infection (FIG. 8C): 100 μM, SVG-A cells pre-incubated, flow cytometry
[2] = Conversion (cyclization) of Retro-2 in solution; assay type: physicochemical
BKPyV [3] = experiment: ER trafficking assay, colocalization with PDI; assay type: cell-based, BK polyomavirus
BKPyV [4] = experiment: VP2 release assay; assay type: cell-based, BK polyomavirus; conditions: 100 μM Retro-2, 500 ng/mL brefeldin A; MOI 10, 10 hpi
Stx2 = conditions: cited from earlier work
JCPyV [5] = experiment: VP2 release assay; assay type: cell-based, JC polyomavirus; conditions: 100 μM Retro-2, 500 ng/mL brefeldin A; MOI 10, 10 hpi
SV40 [6] = experiment: Dose dependent inhibition of infection, flow cytometric scoring, Vero cells; assay type: cell-based, simian virus 40; conditions: Betapolyomavirus macacae, VP1 at 72 h, compared to vehicle control, read-out: calculated EC50, decrease in percentage of cells expressing VP1
Ad5-GFP pseudovirus = assay type: cell-based, Adenovirus Type 5; conditions: Vero cells pre-treated, GFP positive cells by flow cytometry
JCPyV [7] = experiment: Multicycle growth assay and reinfection assay in established infection, SVG-A cells; assay type: cell-based, JC polyomavirus
JCPyV [8] = experiment: ER trafficking assay, colocalization with PDI; assay type: cell-based, JC polyomavirus
SVG-A or Vero cells = assay type: cell-based
Experimental: The viability of SVG-A or Vero cells were first tested after treatment with Retro-2^cycl. Cells were treated with Retro-2^cycl at the indicated concentrations for 72 h before viability was assessed using the CellTiter 96 AQueous One Solution Cell Proliferation Assay. As a control, cells were treated with either 0.04% DMSO or with 10% SDS. Error bars denote standard deviation.

BKPyV [9] = experiment: Binding of labeled virus to Vero cells, flow cytometry; assay type: cell-based, BK polyomavirus; conditions: 100 μM, 1 h pretreatment
BKPyV [10] = experiment: Multicycle growth assay and reinfection assay in established infection, Vero cells; assay type: cell-based, BK polyomavirus
SV40 [11] = experiment: VP2 release assay; assay type: cell-based, simian virus 40; conditions: 100 μM Retro-2, 500 ng/mL brefeldin A; MOI 10, 10 hpi
JCPyV [12] = experiment: Time course (time of addition) experiment, SVG-A cells; assay type: cell-based, JC polyomavirus
CTxB [13] = assay type: cell-based
BKPyV [14] = experiment: Endocytosis assay, trypan blue quenching, confocal microscopy; assay type: cell-based, BK polyomavirus; conditions: 100 μM Retro-2, 100 μM nystatin; fixed at 2 h
BKPyV [15] = experiment: Time course (time of addition) experiment, Vero cells; assay type: cell-based, BK polyomavirus
SV40 [16] = experiment: as above; assay type: cell-based, simian virus 40
CTxB [17] = assay type: cell-based; remark: listed apart in the source
SV40 [18] = experiment: Endocytosis assay, trypan blue quenching, confocal microscopy; assay type: cell-based, simian virus 40; conditions: 100 μM Retro-2, 100 μM nystatin; fixed at 2 h
JCPyV [19] = experiment: as above; assay type: cell-based, JC polyomavirus; conditions: 100 μM Retro-2, 30 μM chloropromazine; fixed at 2 h
SV40 [20] = experiment: Binding of labeled virus to Vero cells, flow cytometry; assay type: cell-based, simian virus 40; conditions: 100 μM, 1 h pretreatment
SV40 [21] = experiment: Multicycle growth assay and reinfection assay in established infection, Vero cells; assay type: cell-based, simian virus 40
BKPyV [22] = experiment: Dose dependent inhibition of infection, flow cytometric scoring, Vero cells; assay type: cell-based, BK polyomavirus; conditions: Betapolyomavirus hominis, VP1 at 72 h, compared to vehicle control, read-out: calculated EC50, decrease in percentage of cells expressing VP1
SV40 [23] = experiment: ER trafficking assay, colocalization with PDI; assay type: cell-based, simian virus 40
cells = conditions: cited from earlier work
[24] = 100 μM, re-fed daily, 12 days post infection, MOI 0.01

CCc1ccc(C2Nc3ccccc3C(=O)N2c2ccccc2)s1 (stereo not drawn) [BU62382A4]
potency against polyomavirus infectivity relative to Retro-2^cycl (JCPyV [1]; preliminary SAR, ethyl instead of methyl at position 5 of thiophenyl ring): does not negatively impact potency

Cc1ccc(/C=N/c2ccccc2C(=O)Nc2ccccc2)s1 [Retro-2, 2-(((5-methylthiophen-2-yl)methylene)amino)-N-phenylbenzamide]
conversion to Retro-2^cycl in solution [2]: rapidly converts

Cc1ccc(C2Nc3ccccc3C(=O)N2c2ccccc2)s1 (stereo not drawn) [Retro-2^cycl, 2-(5-methylthiophen-2-yl)-3-phenyl-2,3-dihydroquinazolin-4(1H)-one]
colocalization with the ER protein PDI (BKPyV [3]): significantly reduces colocalization
cells exposing VP2 (BKPyV [4]): significant reduction of cells exposing VP2
protection of cells from toxin (Stx2): able to protect cells
cells exposing VP2 (JCPyV [5]): significant reduction of cells exposing VP2
EC50 (SV40 [6]): 58.6 µM
inhibition of Ad5-GFP transduction (Ad5-GFP pseudovirus): did not inhibit transduction
inhibition of viral spread (percentage of infected cells vs vehicle control) (JCPyV [7]; [24]): 90.5%
infectious virions in tissue culture supernatant (reinfection of naive cells) (JCPyV [7]; cultures treated with 100 μM): significantly less infectious virions
cytopathic effect in JCV infected SVG-A cells (JCPyV [7]; phase contrast microscopy at 15 days post infection, vs DMSO): reduces cytopathic effect
co-localization of JCV-633 with Rab5 endosomes (JCPyV [8]): increases co-localization
colocalization with the ER protein PDI (JCPyV [8]): significantly reduces colocalization
cell viability at effective doses (SVG-A or Vero cells): do not negatively affect cell viability
binding to cells compared to vehicle control (BKPyV [9]): slight decreases
inhibition of viral spread (percentage of infected cells vs vehicle control) (BKPyV [10]; [24]): 89%
infectious virions in tissue culture supernatant (reinfection of naive cells) (BKPyV [10]; cultures treated with 100 μM): significantly less infectious virions
cells exposing VP2 (SV40 [11]): significant reduction of cells exposing VP2
infectivity regained when compound is added late (JCPyV [12]): greater than 80%
time of addition after which most of the inhibitory effect is lost (JCPyV [12]): > 14 h
time of addition at which infectivity is still significantly reduced (JCPyV [12]): up to 4 hours post infection (hpi)
colocalization with the ER protein PDI (CTxB [13]): significantly reduces colocalization
inhibition of endocytosis (BKPyV [14]): does not inhibit endocytosis
infectivity regained when compound is added late (BKPyV [15]): greater than 80%
time of addition after which most of the inhibitory effect is lost (BKPyV [15]): > 12 h
time of addition at which infectivity is still significantly reduced (BKPyV [15]): up to 4 hours post infection (hpi)
infectivity regained when compound is added late (SV40 [16]): greater than 80%
time of addition after which most of the inhibitory effect is lost (SV40 [16]): > 12 h
time of addition at which infectivity is still significantly reduced (SV40 [16]): up to 4 hours post infection (hpi)
inhibition of endocytosis (CTxB [17]): does not inhibit endocytosis
inhibition of endocytosis (SV40 [18]): does not inhibit endocytosis
inhibition of endocytosis (JCPyV [19]): does not inhibit endocytosis
binding to cells compared to vehicle control (SV40 [20]): slight decreases
inhibition of viral spread (percentage of infected cells vs vehicle control) (SV40 [21]; [24]): 84%
infectious virions in tissue culture supernatant (reinfection of naive cells) (SV40 [21]; cultures treated with 100 μM): significantly less infectious virions
EC50 (BKPyV [22]): 61.2 µM
EC50 (JCPyV [1]; JC polyomavirus, SVG-A cells, VP1 at 72 h, compared to vehicle control, read-out: calculated EC50, decrease in percentage of cells expressing VP1): 28.4 µM
colocalization with the ER protein PDI (SV40 [23]): reduced, although this reduction was not significant

Cc1ccc(/C=N/c2cccc(C(=O)Nc3ccccc3)c2)s1 [Retro-2^meta]
colocalization with the ER protein PDI (BKPyV [3]): significant colocalization
colocalization with the ER protein PDI (JCPyV [8]): significant colocalization
colocalization with the ER protein PDI (CTxB [13]): significant colocalization
inhibition of JCPyV infection (FIG. 8C) (JCPyV [1]): significantly less active
colocalization with the ER protein PDI (SV40 [23]): significant colocalization

Cc1ccc(CNc2ccccc2C(=O)Nc2ccccc2)s1 [Retro-2^red]
inhibition of JCPyV infection (FIG. 8C) (JCPyV [1]): significantly less active

C[C@H]1CCC/C=C/[C@@H]2C[C@H](O)C[C@H]2[C@H](O)/C=C/C(=O)O1 [brefeldin A, reference compound]
colocalization with the ER protein PDI (BKPyV [3]): significantly reduces colocalization
cells exposing VP2 (BKPyV [4]): significant reduction in the number of cells with VP2 exposed
cells exposing VP2 (JCPyV [5]): significant reduction in the number of cells with VP2 exposed
colocalization with the ER protein PDI (JCPyV [8]): significantly reduces colocalization
cytotoxicity to cells (cells): highly cytotoxic
cells exposing VP2 (SV40 [11]): significant reduction in the number of cells with VP2 exposed
colocalization with the ER protein PDI (CTxB [13]): significantly reduces colocalization
reduction in infectivity (JCPyV [1]; 20 ng/mL, SVG-A cells, positive control): 96%
colocalization with the ER protein PDI (SV40 [23]): reduced, although this reduction was not significant

CN(C)CCCN1c2ccccc2Sc2ccc(Cl)cc21 [chloropromazine, reference compound]
inhibition of endocytosis (JCPyV [19]): inhibits endocytosis

C[C@@H]1[C@H](O)[C@@H](C)/C=C/C=C/CC/C=C/C=C/C=C/C=C/C(O[C@H]2O[C@H](C)[C@@H](O)[C@H](N)[C@@H]2O)CC2O[C@](O)(CC(O)C(O)CCC(O)CC(O)CC(O)CC(=O)O[C@H]1C)CC(O)C2C(=O)O (stereo partly drawn) [nystatin, reference compound]
inhibition of endocytosis (BKPyV [14]): inhibits endocytosis
inhibition of endocytosis (CTxB [17]): inhibits endocytosis
inhibition of endocytosis (SV40 [18]): inhibits endocytosis
